Assay: Solubility in water
Settings: compared with TOTAPOL

## bis-TEMPO-bis-Ketal [bTbK]
  solubility in water: less good solubility in water
